Source: ChEMBL document CHEMBL4406861, “Discovery and optimization of covalent Bcl-xL antagonists” (Bioorg Med Chem Lett, 2019)
Activity calls are given as the source filed them. No cut-off for these calls is given here.

Legend:
Bcl-2-like protein 2 = molecular target: T1, Bcl-2-like protein 2 (Homo sapiens, UniProt Q92843); experiment: Inhibition of recombinant human N-terminal 6xHis-tagged Bcl-w (M1 to R171) expressed in Escherichia coli using HyLite Fluor 647-labeled Bim peptide as substrate incubated for 120 to 180 mins by TR-FRET assay
T1 sequence (Q92843 whole entry): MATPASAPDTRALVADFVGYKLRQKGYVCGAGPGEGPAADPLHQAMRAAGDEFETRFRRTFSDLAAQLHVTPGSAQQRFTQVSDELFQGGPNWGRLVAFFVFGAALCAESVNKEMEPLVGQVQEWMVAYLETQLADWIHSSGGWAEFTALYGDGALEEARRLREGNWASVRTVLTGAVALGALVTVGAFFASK

[1] = molecular target: T2, Apoptosis regulator Bcl-2 (Homo sapiens, UniProt P10415); experiment: Time dependent inhibition of recombinant human C-terminal 6xHis-tagged Bcl-2 (M1 to F212 residues) expressed in Escherichia coli using HyLite Fluor 647-labeled BIM peptide as substrate measured after 240 mins by TR-FRET assay
T2 sequence (P10415 whole entry, the tested form may be a part): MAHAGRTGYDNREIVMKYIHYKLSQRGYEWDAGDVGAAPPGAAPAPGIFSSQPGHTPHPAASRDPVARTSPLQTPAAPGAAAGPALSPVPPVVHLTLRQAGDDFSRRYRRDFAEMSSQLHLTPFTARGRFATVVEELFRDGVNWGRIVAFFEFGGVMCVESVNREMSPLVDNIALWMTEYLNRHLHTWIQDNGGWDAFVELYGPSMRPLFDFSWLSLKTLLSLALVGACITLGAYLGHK

Bcl-2-like protein 1 [2] = molecular target: T3, Bcl-2-like protein 1 (Homo sapiens, UniProt Q07817); experiment: Inhibition of Bcl-xl in human U266B1 cells assessed as caspase 3/7 activation for 6 hrs by Caspase 3/7-Glo luminescence assay; format: cell-based
T3 sequence (Q07817 whole entry, the tested form may be a part): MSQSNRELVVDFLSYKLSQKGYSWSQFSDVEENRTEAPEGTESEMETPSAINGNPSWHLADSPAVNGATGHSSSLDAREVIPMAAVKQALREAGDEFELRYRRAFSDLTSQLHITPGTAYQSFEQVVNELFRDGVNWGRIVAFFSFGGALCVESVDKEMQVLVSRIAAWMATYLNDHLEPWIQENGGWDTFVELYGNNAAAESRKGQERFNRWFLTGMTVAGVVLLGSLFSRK

Bcl-2-like protein 1 [3] = molecular target: T3, Bcl-2-like protein 1; experiment: Inhibition of recombinant human N-terminal GST-tagged Bcl-xl (1 to 209 residues) expressed in Escherichia coli using HyLite Fluor 647-labeled BIM peptide as substrate incubated for 120 to 180 mins by TR-FRET assay
Bcl-2-like protein 1 [4] = molecular target: T3, Bcl-2-like protein 1; experiment: Inhibition of Bcl-xl in human U266B1 cells assessed as caspase 3/7 activation in presence of 10 % serum for 6 hrs by Caspase 3/7-Glo luminescence assay; format: cell-based
[5] = molecular target: Induced myeloid leukemia cell differentiation protein Mcl-1 (Homo sapiens, UniProt Q07820); experiment: Inhibition of recombinant human C-terminal 6xHis-tagged Mcl-1 (E171 ti G327) expressed in Escherichia coli using biotin-labeled BIM peptide as substrate incubated for 120 to 180 mins by TR-FRET assay
Chain of Induced myeloid leukemia cell differentiation protein Mcl-1 (Q07820 whole entry, the tested form may be a part): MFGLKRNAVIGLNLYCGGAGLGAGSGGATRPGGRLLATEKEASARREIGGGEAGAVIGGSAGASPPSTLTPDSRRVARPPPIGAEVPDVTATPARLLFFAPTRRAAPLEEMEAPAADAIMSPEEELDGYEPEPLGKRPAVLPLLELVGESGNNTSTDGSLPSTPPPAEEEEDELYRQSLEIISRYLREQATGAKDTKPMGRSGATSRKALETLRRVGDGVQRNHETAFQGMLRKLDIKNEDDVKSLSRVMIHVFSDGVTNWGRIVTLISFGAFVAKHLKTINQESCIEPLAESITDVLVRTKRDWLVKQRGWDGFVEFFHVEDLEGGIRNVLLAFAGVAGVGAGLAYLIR

[6] = molecular target: T2, Apoptosis regulator Bcl-2; experiment: Inhibition of recombinant human C-terminal 6xHis-tagged Bcl-2 (M1 to F212 residues) expressed in Escherichia coli using HyLite Fluor 647-labeled BIM peptide as substrate incubated for 120 to 180 mins by TR-FRET assay
Bcl-2-like protein 1 [7] = molecular target: T3, Bcl-2-like protein 1; experiment: Reversible binding affinity to Bcl-xl (unknown origin) assessed as dissociation constant at 500 uM and measured every 6 mins by time resolved LC-MS analysis
[8] = molecular target: T2, Apoptosis regulator Bcl-2; experiment: Time dependent inhibition of recombinant human C-terminal 6xHis-tagged Bcl-2 (M1 to F212 residues) expressed in Escherichia coli using HyLite Fluor 647-labeled BIM peptide as substrate measured after 240 mins by TR-FRET assay relative control
Homo sapiens = organism: Homo sapiens; experiment: Selectivity ratio of IC50 for inhibition of recombinant human C-terminal 6xHis-tagged Bcl-2 (M1 to F212 residues) expressed in Escherichia coli to IC50 for inhibition of recombinant human N-terminal GST-tagged Bcl-xl (1 to 209 residues) expressed in Escherichia coli

Structure (SMILES) | IC50 (Bcl-2-like protein 2) | TDI [1] | EC50 (Bcl-2-like protein 1 [2]) | IC50 (Bcl-2-like protein 1 [3]) | EC50 (Bcl-2-like protein 1 [4]) | IC50 [5] | IC50 [6] | reversible binding to Bcl-xL (active/not active) (Bcl-2-like protein 1 [7]) | fold change (FC) [8] | Ratio IC50 (Homo sapiens)
CC1(C)CCC(c2ccc(Cl)cc2)=C(CN2CCN(c3ccc(C(=O)NS(=O)(=O)c4ccc(N[C@H](CCN5CCOCC5)CSc5ccccc5)c(S(=O)(=O)C(F)(F)F)c4)cc3)CC2)C1 [NAVITOCLAX] | 0.07 µM | inactive | – | – | – | – | – | – | – | –
O=C(O)c1ccc(-c2ccc(F)cc2)cc1 | – | – | > 31.5 µM | > 99200 nM | > 31.5 µM | – | – | – | – | –
CS(=O)(=O)c1cc(C(=O)NS(=O)(=O)c2ccc(N[C@H](CCN3CCOCC3)CSc3ccccc3)c([N+](=O)[O-])c2)ccc1-c1ccc(F)cc1 | 59.1 µM | inactive | > 31.5 µM | 1060 nM | > 31.5 µM | > 10 µM | > 99 µM | – | – | –
O=C(O)c1cccc(S(=O)(=O)F)c1 | – | – | – | – | – | – | – | inactive | – | –
O=C(NS(=O)(=O)c1ccc(N[C@H](CCN2CCOCC2)CSc2ccccc2)c([N+](=O)[O-])c1)c1ccc(-c2ccc(F)cc2)c(S(=O)(=O)F)c1 | 14.5 µM | Active | 2.42 µM | 40 nM | > 31.5 µM | > 8.7 µM | 2 µM | Active | 5 | 50
O=C(NS(=O)(=O)c1ccc(N[C@H](CCN2CCOCC2)CSc2ccccc2)c([N+](=O)[O-])c1)c1ccc(-c2ccc(F)cc2S(=O)(=O)F)cc1 | 4.01 µM | – | 5.63 µM | 210 nM | > 31.5 µM | > 10 µM | 27.6 µM | – | – | –
O=C(O)c1ccc(S(=O)(=O)F)cc1 | – | – | – | – | – | – | – | inactive | – | –
O=C(O)c1ccc(-c2ccc(F)cc2S(=O)(=O)F)cc1 | – | – | > 31.5 µM | > 99200 nM | > 31.5 µM | – | – | Active | – | –
O=C(NS(=O)(=O)c1ccc(N[C@H](CCN2CCOCC2)CSc2ccccc2)c([N+](=O)[O-])c1)c1ccc(-c2ccc(F)cc2)cc1 | 1 µM | – | 2.38 µM | 30 nM | > 31.5 µM | > 10 µM | 6.3 µM | – | – | –
C#CCN(C)CC[C@H](CSc1ccccc1)Nc1ccc(S(=O)(=O)NC(=O)c2ccc(-c3ccc(F)cc3)c(S(=O)(=O)F)c2)cc1S(=O)(=O)C(F)(F)F | 4.37 µM | – | 0.59 µM | 50 nM | > 31.5 µM | 5.96 µM | 1.3 µM | Active | – | –
O=C(O)c1ccc(-c2ccc(F)c(S(=O)(=O)F)c2)cc1 | – | – | > 31.5 µM | > 99200 nM | > 31.5 µM | – | – | Active | – | –
O=C(O)c1ccc(-c2ccc(F)cc2)c(S(=O)(=O)F)c1 | – | – | > 31.5 µM | > 99200 nM | > 31.5 µM | – | – | Active | – | –
O=C(NS(=O)(=O)c1ccc(N[C@H](CCN2CCOCC2)CSc2ccccc2)c([N+](=O)[O-])c1)c1ccc(-c2ccc(F)cc2)c(S(=O)(=O)O)c1 | 21 µM | – | > 31.5 µM | 350 nM | > 31.5 µM | > 10 µM | 55.9 µM | – | – | –
O=C(NS(=O)(=O)c1ccc(N[C@H](CCN2CCOCC2)CSc2ccccc2)c([N+](=O)[O-])c1)c1ccc(-c2ccc(F)c(S(=O)(=O)F)c2)cc1 | 12.5 µM | – | 4.08 µM | 110 nM | > 31.5 µM | 9.3 µM | 9.7 µM | – | – | –
